In the test the test system is Erysiphe graminis. Description: Test for preventive effect on wheat powdery mildew. The test is classed as in vivo. To be noted: wheat (Norin-61-go) seedlings, 500 ppm active ingredient, preventive treatment; diseased area of first leaves 10 days after inoculation with Erysiphe graminis. The protocol:
Test for Preventive Effect on Wheat Powdery Mildew 9 Wheat seeds (variety: Norin-61-go) were sown in each 9 cm×9 cm polyvinyl chloride pot, grown in a greenhouse for 8 days, then treated with 10 ml per pot of aqueous solutions of wettable powders prepared in accordance with Formulation Example 2, at a concentration of 500 ppm in terms of the active ingredients and dried in the air. Then, the seedlings were inoculated with Erysiphe graminis spores by sprinkle over the plant and placed in a greenhouse of from 20 to 25° C. 10 days after the inoculation, the total diseases area of the first leaves in each pot was observed and evaluated on the basis of the standards shown in Table 67. [table]

Take `COc1nc(OC)nc(-n2c(C)nc3cc(C(=O)c4ccccc4)ccc32)n1` [Compound I-235]: the Biological effectiveness result is “A (No diseased area)”.

For `COc1nc(OC)nc(-n2c(Cc3ccccc3)nc3cc(Cl)ccc32)n1` [Compound I-379], the Biological effectiveness entry is reported as “A (No diseased area)”.

Take `COc1cc(OC)nc(-n2c(Cl)nc3cc(F)ccc32)n1` [Compound I-255]: the Biological effectiveness entry is recorded as “A (No diseased area)”.

On to `COc1cc(OC)nc(-n2cnc3ccc(F)cc32)n1` [Compound I-112], for which the Biological effectiveness entry is on record as “B (Diseased area of less than 25%)”.

In the case of `COc1cc(OC)nc(-n2c(C)nc3cc(Cl)ccc32)n1` [Compound I-184], the Biological effectiveness result was “A (No diseased area)”.

Regarding `CCCc1cc(OC)nc(-n2cnc3cc(C)ccc32)n1` [Compound I-962], the Biological effectiveness result is reported as “A (No diseased area)”.

On to `COc1nc(C)nc(-n2c(C)nc3cc(C)ccc32)n1` [Compound I-752], for which the Biological effectiveness result is given as “A (No diseased area)”.

With `COc1nc(OC)nc(-n2c(C)nc3c(C)cc(C)cc32)n1` [Compound I-250], the Biological effectiveness entry is reported as “B (Diseased area of less than 25%)”.

On to `CCc1nc2cc(OC)ccc2n1-c1nc(OC)cc(OC)n1` [Compound I-336], for which the Biological effectiveness result is listed as “A (No diseased area)”.

For `C#CCOc1cc(C)nc(-n2c(C(F)(F)F)nc3cc(C)ccc32)n1` [Compound I-903], the Biological effectiveness entry was “B (Diseased area of less than 25%)”.

Turning to `COc1ccc2c(c1)nc(N)n2-c1nc(OC)cc(OC)n1` [Compound I-364], the Biological effectiveness result is listed as “A (No diseased area)”.

Consider `CCOc1cc(OCC)nc(-n2cnc3ccc(Cl)cc32)n1` [Compound I-486], for which the Biological effectiveness result is listed as “A (No diseased area)”.

For `CCOc1ccc2c(c1)nc(Cl)n2-c1nc(OC)cc(OC)n1` [Compound I-261], the Biological effectiveness result was “B (Diseased area of less than 25%)”.

`COc1nc(OC)nc(-n2c(C(F)(F)F)nc3cc(OC(F)(F)F)ccc32)n1` [Compound I-321]: the Biological effectiveness entry is reported as “A (No diseased area)”.

For `COc1cc(OC)nc(-n2cnc3ccccc32)n1` [Compound I-1], the Biological effectiveness result is “A (No diseased area)”.

On to `Cc1cc(C2CC2)nc(-n2c(C)nc3ccc(Cl)cc32)n1` [Compound I-1106], for which the Biological effectiveness result is reported as “B (Diseased area of less than 25%)”.

For the compound `CCOc1cc(OCC)nc(-n2c(C)nc3cc(F)ccc32)n1` [Compound I-498], the Biological effectiveness result was “A (No diseased area)”.

On to `COc1cc(OC)nc(-n2c(C(F)(F)F)nc3cc(C(F)(F)F)ccc32)n1` [Compound I-299], for which the Biological effectiveness result is “A (No diseased area)”.

As to `CCCOc1nc(OCCC)nc(-n2c(C)nc3cc(Cl)ccc32)n1` [Compound I-580], the Biological effectiveness entry was “A (No diseased area)”.

`COc1cc(OC)nc(-n2cnc3cc(Br)ccc32)n1` [Compound I-84]: the Biological effectiveness result is “A (No diseased area)”.

For the compound `COc1ccc2c(c1)nc(C)n2-c1nc(OC)cc(OC)n1` [Compound I-189], the Biological effectiveness entry is given as “A (No diseased area)”.

Take `CCCc1nc2cc(Cl)ccc2n1-c1nc(OC)nc(OC)n1` [Compound I-358]: the Biological effectiveness entry was “A (No diseased area)”.

Consider `Cc1ccc2c(c1)nc(C)n2-c1nc(C)cc(C2CC2)n1` [Compound I-1103], for which the Biological effectiveness result was “B (Diseased area of less than 25%)”.

Turning to `CCOc1cc(OCC)nc(-n2c(C)nc3ccc(OC)cc32)n1` [Compound I-511], the Biological effectiveness result is listed as “A (No diseased area)”.

Take `COC(=O)c1ccc2c(c1)nc(C)n2-c1nc(OC)nc(OC)n1` [Compound I-232]: the Biological effectiveness entry is “B (Diseased area of less than 25%)”.

For `CCOc1cc(OCC)nc(-n2c(CC)nc3ccccc32)n1` [Compound I-462], the Biological effectiveness entry is “B (Diseased area of less than 25%)”.

Turning to `COc1nc(OC)nc(-n2cnc3cc(C)ccc32)n1` [Compound I-133], the Biological effectiveness entry was “A (No diseased area)”.

As to `CCCOc1cc(C)nc(-n2cnc3cc(C)ccc32)n1` [Compound I-809], the Biological effectiveness result is “B (Diseased area of less than 25%)”.

For `COc1nc(OC)nc(-n2c(C)nc3cc(OC(F)(F)F)ccc32)n1` [Compound I-229], the Biological effectiveness result is “A (No diseased area)”.

As for `CSc1nc(C)nc(-n2c(C(F)(F)F)nc3cc(C)ccc32)n1` [Compound I-1048], the Biological effectiveness result was “A (No diseased area)”.

As to `COc1cc(C)nc(-n2c(C)nc3cc(Cl)ccc32)n1` [Compound I-731], the Biological effectiveness entry was “B (Diseased area of less than 25%)”.

For `COc1nc(OC)nc(-n2cnc3cc(Cl)c(Cl)cc32)n1` [Compound I-175], the Biological effectiveness result is listed as “A (No diseased area)”.

In the case of `COc1ccnc(-n2c(C)nc3cc(C)ccc32)n1` [Compound I-672], the Biological effectiveness result was “B (Diseased area of less than 25%)”.

As to `COc1cc(OC)nc(-n2cnc3cc(C(F)(F)F)ccc32)n1` [Compound I-87], the Biological effectiveness entry is given as “A (No diseased area)”.

With `CCOc1nc(OCC)nc(-n2c(C(Cl)(Cl)Cl)nc3cc(Cl)ccc32)n1` [Compound I-550], the Biological effectiveness result is listed as “A (No diseased area)”.

Consider `Cc1cc(OC(C)C)nc(-n2c(C)nc3ccccc32)n1` [Compound I-840], for which the Biological effectiveness entry is “B (Diseased area of less than 25%)”.

As to `CCCc1cc(OC)nc(-n2c(C)nc3cc(C)ccc32)n1` [Compound I-965], the Biological effectiveness entry is “A (No diseased area)”.

For the compound `Cc1cc(C#N)nc(-n2c(C)nc3ccccc32)n1` [Compound I-1147], the Biological effectiveness result is reported as “B (Diseased area of less than 25%)”.

Take `COc1nc(OC)nc(-n2c(C)nc3cc(Br)ccc32)n1` [Compound I-216]: the Biological effectiveness result was “A (No diseased area)”.

As to `CCOCc1nc2ccccc2n1-c1nc(OC)cc(OC)n1` [Compound I-22], the Biological effectiveness entry was “A (No diseased area)”.

With `COc1ccc2c(c1)nc(C(F)(F)F)n2-c1nc(OC)cc(OC)n1` [Compound I-300], the Biological effectiveness entry was “A (No diseased area)”.

As for `CCOc1ccnc(-n2cnc3cc(Cl)ccc32)n1` [Compound I-692], the Biological effectiveness result is reported as “B (Diseased area of less than 25%)”.

Regarding `CC(C)Oc1nc(OC(C)C)nc(-n2c(C(F)(F)F)nc3cc(Cl)ccc32)n1` [Compound I-595], the Biological effectiveness entry was “B (Diseased area of less than 25%)”.

Consider `CCCc1ccc2c(c1)ncn2-c1nc(OC)nc(OC)n1` [Compound I-135], for which the Biological effectiveness result is “A (No diseased area)”.

Consider `CCc1ccc2c(c1)nc(C)n2-c1nc(OC)nc(OC)n1` [Compound I-219], for which the Biological effectiveness entry is “A (No diseased area)”.

With `CCCOc1cc(C)nc(-n2cnc3ccccc32)n1` [Compound I-804], the Biological effectiveness result is recorded as “A (No diseased area)”.

Regarding `COc1nc(OC)nc(-n2c(C)nc3cc(I)ccc32)n1` [Compound I-217], the Biological effectiveness result is listed as “A (No diseased area)”.

For `CCOc1cc(OCC)nc(-n2c(Cl)nc3ccccc32)n1` [Compound I-458], the Biological effectiveness result is reported as “A (No diseased area)”.

Consider `CCOc1cc(OCC)nc(-n2c(C)nc3cc(OC)ccc32)n1` [Compound I-503], for which the Biological effectiveness entry is reported as “A (No diseased area)”.

The values above are taken from US6872729B2, “Pyrimidinylbenzimidazole and triazinylbenzimidazole derivatives and agricultural/horticultural fungicides” (Kumiai Chemical Industry Co., Ltd., priority 1998, dated 2005).
